Publication PMC7198766, “Structure-Activity Studies on the Hypertrehalosemic Hormone II of the Stick Insect Carausius morosus (Phasmatodea): Carbohydrate-Mobilization and Cardio-Stimulatory Activities” (Frontiers in Physiology, 2020)
Where “and” joins values, the source holds several entries; their conditions need not be identical. Equal values may be shown once.

What was measured:
[1] = tested on: ligated 6th instar Indian stick insects (Carausius morosus); assay: Carbohydrate-mobilization (hypertrehalosemic) in vivo assay
Experimental: Sixth instar nymphs that were 1–2 days before molting were neck-ligated and used in the hypertrehalosemic in vivo assay as described in detail by [Gäde and Lohr (1982)]. Stock peptide solutions (5 pmol μl^–1) were diluted with distilled water to the desired concentration in 10 μl, which was injected into the stick insect nymphs.
In the first series of experiments, various doses of synthetic Carmo-HrTH-II and corpora cardiaca (CC) extract of C. morosus were used to determine the maximal hypertrehalosemic response of C. morosus. Hemolymph samples were taken from 17 to 18 days old 6th instar nymphs 2 h after they were neck-ligated and then 90 min after either CC extract or synthetic Carmo-HrTH-II was injected. Ligated nymphs injected with distilled water served as controls for handling stress. As depicted in Figures 1A,B, various doses of both Carmo-HrTH-II and CC extract increased the level of carbohydrates in the hemolymph in a dose-dependent manner. A dose of 0.04 pmol of synthetic Carmo-HrTH-II and the equivalent of 0.005 pairs of corpora cardiaca (pCC) were sufficient to give significant increases in hemolymph carbohydrates (p < 0.05). […] Doses of 0.1–0.5 pCC gave an average increase of 5.6 ± 0.6 mg carbohydrates ml^–1 hemolymph (Figure 1B); again, statistical analyses reveal no significant difference between the effect of these doses (p > 0.05).
Based on these pilot experiments, we selected a dose of 20 pmol for testing the analogs of Carmo-HrTH-II since such a dose of our lead compound, Carmo-HrTH-II had achieved maximal hypertrehalosemic activity.

[2] = tested on: heart of neck-ligated Carausius morosus; assay: Semi-exposed heart bioassay (heart beat rate); assay type: in vivo
Experimental: The semi-exposed heart bioassay was carried out as described ([Marco et al., 2018]) with adult stick insects between 1 and 2 months old that were ligated at the neck. Briefly, a ventral incision of the abdomen exposed the ventral cavity with the internal organs; a few drops of stick insect saline (pH 6.6; 15 mM NaCl, 18 mM KCl, 7.5 mM CaCl2, 2 mM HEPES, 50 mM MgCl2, and 184 mM glucose according to [Ejaz and Lange, 2008]) were added to the exposed part. The semi-isolated heart preparation was viewed with a dissecting microscope (12-fold magnification), and the number of observed heart beats (contractions of the heart muscle) was counted during a fixed period using a manual tally counter and a timer. Once the heart had stabilized, saline was replaced with the test solution. For this the peptide stock solution of 5 pmol μl^–1 was diluted with stick insect saline to the desired concentration and a final volume of 150 μl was used for each test.
Heart rates under normal saline served as controls. The change in heart rate after the application of the test solution was calculated as an average of the first four counts and was compared to the average heart rates counted in saline before the application of the test solution. This comparison of change in heart rates was done for all the peptides tested.

[3] = tested on: heart of neck-ligated Carausius morosus; set-up: method as in Marco et al., 2018; conditions: ligated stick insects; synthetic peptide; ref Marco et al., 2018; cited from earlier work
Blaberus discoidalis = tested on: Blaberus discoidalis; set-up: method as in Hayes and Keeley, 1990; conditions: in vivo assay, cockroach B. discoidalis; ref Hayes and Keeley, 1990; cited from earlier work
Manduca sexta = tested on: Manduca sexta; set-up: method as in Fox and Reynolds, 1991; Ziegler et al., 1991; conditions: in vivo assay, ref Fox and Reynolds, 1991, Ziegler et al.; cited from earlier work
Periplaneta americana = tested on: Periplaneta americana; set-up: method as in Gäde, 1990; conditions: in vivo assay, P. americana; ref Gäde, 1990; cited from earlier work
Locusta migratoria = tested on: Locusta migratoria; set-up: method as in Gäde, 1990; conditions: in vivo assay, L. migratoria; ref Gäde, 1990; cited from earlier work

Substance: pGlu-Leu-Thr-Phe-Thr-Pro-Asn-Trp-Gly-Thr amide [Carmo-HrTH-II, reference compound]
- % Activity relative to the effect of Carmo-HrTH-II (metabolic) ([1]; 20 pmol peptide injected, carbohydrate increase relative to Carmo-HrTH-II = 100, NS = no significant increase): 100%
- Hemolymph carbohydrates, 90 min ([1]; 90 min after injection of 20 pmol peptide in 10 μl, neck-ligated 6th instar nymphs): 14.9 ± 1.9 mg/mL
- Hemolymph carbohydrates, Difference ([1]; 90 min minus 0 min, 20 pmol peptide in 10 μl injected, neck-ligated 6th instar nymphs): 5.4 ± 1.1 mg/mL
- Hemolymph carbohydrates, 0 min ([1]; before injection (0 min), 2 h after neck ligation, group later given 20 pmol peptide in 10 μl, 6th instar nymphs): 9.4 ± 1.5 mg/mL
- Average increase of hemolymph carbohydrates ([1]; doses of 7.5–60 pmol (plateau, no significant difference between doses), 90 min): 5.2 ± 0.4 mg ml^–1
- Dose sufficient to give significant increases in hemolymph carbohydrates ([1]; synthetic peptide injected, 17-18 days old ligated 6th instar nymphs, 90 min, p < 0.05): 0.04 pmol
- % Activity relative to the effect of Carmo-HrTH-II (myotropic) ([2]; 20 pmol peptide in 150 μl, heart rate increase relative to Carmo-HrTH-II = 100, NS = no significant increase): 100%
- Heart rate, Post-application ([2]; after application of 20 pmol peptide in 150 μl saline, average of first four counts, neck-ligated stick insects): 53 ± 5 beats min^−1
- Heart rate, Pre-application ([2]; in saline before application, neck-ligated stick insects, semi-exposed heart): 41 beats min^−1 and 41 ± 4 beats min^−1
- Heart rate, Difference ([2]; post- minus pre-application, 20 pmol peptide in 150 μl): 12 ± 5 beats min^−1
- Doses that increased the heart beat rate significantly and maximally [3]: above 6.67 × 10^–8 M
- Fold less active than the endogenous Bladi-HrTH (Blaberus discoidalis): more than 300 fold
- Activity relative to the endogenous nonapeptide Manse-AKH (Manduca sexta): as, or slightly more active than the endogenous nonapeptide Manse-AKH
- Activity relative to the endogenous octapeptides Peram-CAH-I and -II (Periplaneta americana): more or less as active
- Activity relative to the endogenous decapeptide Locmi-AKH-I (Locusta migratoria): only slightly less active
